# Measurements reported in patent US10350255B2, “Polygonum cuspidatum extracts” (priority 2015, dated 2019).
# Read-outs that look alike come from different tables or passages of the source.
# Legend:
# [1] = tested on: microorganisms; assay: Photodynamic inactivation by isolated fractions and commercial anthraquinones; type: cell-based; conditions: for Photodynamic effect of components isolated by fractionation: isolated by fractionation of the extract; for Order of photodynamic inactivation of microorganisms: commercial samples of anthraquinones
# Text: The anthraquinones, or their glycosylated derivatives, could be responsible for the photosensitizing effect of the extract. […] Commercial samples of anthraquinones produced photodynamic inactivation of microorganisms in the order emodin>physcion>rhein. In some P. cuspidatum extracts, the proportions of emodin and physcion are between 0.51-0.65% and 0.24-0.27% by weight, respectively.
# [2] = tested on: S. mutans; assay: Agar diffusion test (TSA, bored hole / paper disk), dark vs light; type: cell-based, Streptococcus mutans; conditions: for zone of inhibition at 5000 µg/mL: chlorhexidine control 5 mg/mL
# [3] = tested on: S. aureus; assay: as above; type: cell-based, Staphylococcus aureus; conditions: for zone of inhibition at 5000 µg/mL: Staphylococcus aureus, chlorhexidine control 5 mg/mL
# [4] = comparative test, samples at strength as labelled, dark
# [5] = comparative test, samples at strength as labelled, light 36 J cm^-2
# [6] = light-activated, extract 40 μg, components at their proportions found in the extract
# [7] = light-activated, extract 40 μg, components at their proportions found in the extract, listed as Emodin 0.001%
structure (smiles),measurement,setting,value
"Cc1cc(O)c2c(c1)C(=O)c1cc(O)cc(O[C@@H]3O[C@H](CO)[C@@H](O)[C@H](O)[C@H]3O)c1C2=O [anthraquinones B, Anthraglycoside B]",Photodynamic effect of components isolated by fractionation,[1],inactive
"Cc1cc2nc3ccc(N(C)C)cc3[s+]c2cc1N.[Cl-] [TB 1%, Toluidine Blue 0]","Inhibition zone, S. mutans, Dark",[2]; [4],15 mm
same,"Inhibition zone, S. mutans, Light",[2]; [5],15 mm
same,"Inhibition zone, S. aureus, Dark",[3]; [4],15 mm
same,"Inhibition zone, S. aureus, Light",[3]; [5],16 mm
Cc1cc(O)c2c(c1)C(=O)c1cc(O)cc(O)c1C2=O [Emodin],zone of inhibition at 40 µg/disc,"[2]; Streptococcus mutans, light or radiation study, higher concentrations: 20 μL of 2 mg mL^-1 = 40 μg, light 36 J cm^-2 (FIG. 14), read-out: Inhibition zone (photoactivity)",10 mm
same,"Inhibition zone, S. mutans, Light",[2]; [6],7 mm
same,"Inhibition zone, S. mutans, Light",[2]; [7],7.0 mm
same,"Inhibition zone, S. aureus, Light",[3]; [7],8.5 mm
same,Order of photodynamic inactivation of microorganisms,[1],emodin>physcion>rhein
same,Photodynamic effect of components isolated by fractionation,[1],greatest photodynamic effect
"Oc1ccc(C=Cc2cc(O)cc(O)c2)cc1 [resveratrol, Resveratrol]",Antimicrobial activity in the dark,"[2]; agar diffusion, dark (FIG. 14)",inactive
same,Antimicrobial activity with light activation,"[2]; agar diffusion, light 36 J cm^-2 (FIG. 14)",inactive
COc1cc(O[C@@H]2O[C@H](CO)[C@@H](O)[C@H](O)[C@H]2O)c2c(c1)C(=O)c1cc(C)cc(O)c1C2=O [anthraquinones A],Photodynamic effect of components isolated by fractionation,[1],inactive
"[H]/N=C(\N/C(=N/[H])NCCCCCCNC(=N)NC(=N)Nc1ccc(Cl)cc1)Nc1ccc(Cl)cc1 [chlorhexidine, Chlorhexidine Digluconate]",zone of inhibition at 5000 µg/mL,"[2]; Streptococcus mutans, dark, read-out: Inhibition zone, S. mutans, dark (reference)",18 mm
same,zone of inhibition at 5000 µg/mL,"[2]; Streptococcus mutans, light 35 J cm^-2, read-out: Inhibition zone, S. mutans, light (reference)",18 mm
same,zone of inhibition at 5000 µg/mL,"[3]; dark, read-out: Inhibition zone, S. aureus, dark (reference)",18 mm
same,zone of inhibition at 5000 µg/mL,"[3]; light 35 J cm^-2, read-out: Inhibition zone, S. aureus, light (reference)",18 mm
COc1cc(O)c2c(c1)C(=O)c1cc(C)cc(O)c1C2=O [Physcion],"Inhibition zone, S. mutans, Light",[2]; [6],inactive
same,"Inhibition zone, S. aureus, Light","[3]; light-activated, extract 40 μg, components at their proportions found in the extract, listed as Physcion 0.001%",8.5 mm
same,Order of photodynamic inactivation of microorganisms,[1],emodin>physcion>rhein
